Results taken from ChEMBL document CHEMBL5665443, “Enzyme Inhibitor Single Concentration assay results for EUbOPEN Chemogenomics Library” (2024).

How the values were obtained:
[1] = target: G/T mismatch-specific thymine DNA glycosylase (Homo sapiens) (UniProt Q13569);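 note: human TDG cleavage of quenched duplex DNA oligonucleotides coupled to APE1, strand release read as fluorescence at 594 nm, inhibition of TDG activity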
Description: Inhibition of TDG by quantifying inhibition of TDG-mediated cleavage and dissociation of quenched duplex DNA oligonucleotides, measured as fluorescence at 594 nm. To generate a functional strand incision and increase turn-over this assay is coupled to APE1.

[2] = target: T1, Endonuclease III-like protein 1 (Homo sapiens) (UniProt P78549); details: Hit No;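 note: enzyme assay tracking NTHL1 cutting and release of a quenched double-stranded DNA oligo substrate, read as fluorescence at 594 nm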
T1 sequence (whole entry): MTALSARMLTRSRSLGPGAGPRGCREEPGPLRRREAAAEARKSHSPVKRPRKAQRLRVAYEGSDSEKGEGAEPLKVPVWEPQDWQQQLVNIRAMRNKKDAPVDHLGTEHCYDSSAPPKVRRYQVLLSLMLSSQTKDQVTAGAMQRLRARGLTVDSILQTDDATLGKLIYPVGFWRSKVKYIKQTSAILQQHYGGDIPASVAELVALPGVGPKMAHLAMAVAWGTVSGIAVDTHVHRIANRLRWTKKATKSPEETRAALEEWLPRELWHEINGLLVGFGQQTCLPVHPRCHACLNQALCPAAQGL
Description: Inhibition of NTHL1 by quantifying inhibition of NTHL1-mediated cleavage and dissociation of quenched duplex DNA oligonucleotides, measured as fluorescence at 594 nm.

[3] = target: T2, Adenine DNA glycosylase (Homo sapiens) (UniProt Q9UIF7); details: Hit No;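 note: human MUTYH activity read as 594 nm fluorescence from cleavage and release of a quenched DNA duplex, coupled with APE1 for strand incision, lower signal meaning inhibition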
T2 sequence (whole entry): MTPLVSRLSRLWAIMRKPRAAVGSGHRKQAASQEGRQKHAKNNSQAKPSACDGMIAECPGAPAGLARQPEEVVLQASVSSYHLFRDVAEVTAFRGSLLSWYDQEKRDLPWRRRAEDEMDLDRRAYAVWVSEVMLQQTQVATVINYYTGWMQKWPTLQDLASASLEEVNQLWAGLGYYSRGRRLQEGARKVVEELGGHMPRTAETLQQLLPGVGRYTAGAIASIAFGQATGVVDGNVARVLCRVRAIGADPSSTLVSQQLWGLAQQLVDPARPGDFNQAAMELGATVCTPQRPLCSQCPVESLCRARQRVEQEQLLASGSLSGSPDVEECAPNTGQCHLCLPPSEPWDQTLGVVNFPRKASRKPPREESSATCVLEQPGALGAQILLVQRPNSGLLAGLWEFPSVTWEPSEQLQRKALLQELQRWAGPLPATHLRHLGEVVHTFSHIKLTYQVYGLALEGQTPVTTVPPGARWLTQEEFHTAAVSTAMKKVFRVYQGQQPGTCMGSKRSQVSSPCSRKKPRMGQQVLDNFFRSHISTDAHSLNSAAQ
Description: Inhibition of MUTYH by quantifying inhibition of MUTYH-mediated cleavage and dissociation of quenched duplex DNA oligonucleotides, measured as fluorescence at 594 nm. To generate a functional strand incision and increase turn-over this assay is coupled to APE1.

[4] = target: N-glycosylase/DNA lyase (Homo sapiens) (UniProt O15527); details: Hit No;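 note: OGG1 cleavage of a quenched duplex DNA oligonucleotide, coupled to APE1 for strand incision, read as fluorescence at 594 nm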
Description: Inhibition of OGG1 by quantifying inhibition of OGG1-mediated cleavage and dissociation of quenched duplex DNA oligonucleotides, measured as fluorescence at 594 nm. To generate a functional strand incision and increase turn-over this assay is coupled to APE1.

[5] = target: Uracil-DNA glycosylase (Homo sapiens) (UniProt P13051); details: Hit No;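 note: UNG excision on a quenched double-stranded DNA oligo probe, with APE1 added for strand incision and turnover, read as fluorescence at 594 nm as strands separate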
Description: Inhibition of UNG by quantifying inhibition of UNG-mediated cleavage and dissociation of quenched duplex DNA oligonucleotides, measured as fluorescence at 594 nm. To generate a functional strand incision and increase turn-over this assay is coupled to APE1.

[6] = target: T3, Single-strand selective monofunctional uracil DNA glycosylase (Homo sapiens) (UniProt Q53HV7); details: Hit No;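 note: enzymatic SMUG1 assay coupled with APE1, reading fluorescence at 594 nm released when a quenched double-stranded DNA oligonucleotide substrate is cleaved and separated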
T3 sequence (whole entry): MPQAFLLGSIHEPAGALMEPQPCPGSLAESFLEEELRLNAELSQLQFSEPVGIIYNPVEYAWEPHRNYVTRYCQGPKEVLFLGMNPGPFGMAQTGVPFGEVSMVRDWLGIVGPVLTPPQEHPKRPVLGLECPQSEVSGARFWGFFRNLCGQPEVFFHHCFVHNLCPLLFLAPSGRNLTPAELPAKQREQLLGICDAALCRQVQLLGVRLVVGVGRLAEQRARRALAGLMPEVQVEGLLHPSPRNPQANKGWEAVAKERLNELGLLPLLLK
Description: Inhibition of SMUG1 by quantifying inhibition of SMUG1-mediated cleavage and dissociation of quenched duplex DNA oligonucleotides, measured as fluorescence at 594 nm. To generate a functional strand incision and increase turn-over this assay is coupled to APE1.

[7] = target: T4, Endonuclease 8-like 2 (Homo sapiens) (UniProt Q969S2); details: Hit No;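 note: fluorescence at 594 nm reports NEIL2 cutting and release of a quenched double-stranded DNA oligo substrate, reduced signal read as inhibition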
T4 sequence (whole entry): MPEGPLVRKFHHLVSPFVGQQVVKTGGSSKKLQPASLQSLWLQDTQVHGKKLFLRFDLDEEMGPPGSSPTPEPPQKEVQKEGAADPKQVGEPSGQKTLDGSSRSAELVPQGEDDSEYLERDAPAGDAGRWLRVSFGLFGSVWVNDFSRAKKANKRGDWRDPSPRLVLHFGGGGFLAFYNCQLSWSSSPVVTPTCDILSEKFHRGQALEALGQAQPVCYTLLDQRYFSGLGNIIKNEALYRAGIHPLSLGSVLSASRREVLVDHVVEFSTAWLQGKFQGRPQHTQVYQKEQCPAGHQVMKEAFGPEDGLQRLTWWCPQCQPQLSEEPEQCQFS
Description: Inhibition of NEIL2 by quantifying inhibition of NEIL2-mediated cleavage and dissociation of quenched duplex DNA oligonucleotides, measured as fluorescence at 594 nm.

[8] = target: Methyl-CpG-binding domain protein 4 (Homo sapiens) (UniProt O95243);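 note: MBD4 activity read as fluorescence at 594 nm from cleavage and release of a quenched duplex DNA oligonucleotide, with APE1 coupled to incise the strand and raise turnover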
Description: Inhibition of MBD4 by quantifying inhibition of MBD4-mediated cleavage and dissociation of quenched duplex DNA oligonucleotides, measured as fluorescence at 594 nm. To generate a functional strand incision and increase turn-over this assay is coupled to APE1.

[9] = target: Endonuclease 8-like 1 (Homo sapiens) (UniProt Q96FI4); details: Compound Concentration 10.0 uM, Hit No;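 note: fluorescence at 594 nm from quenched duplex DNA oligonucleotides released by NEIL1 cleavage and strand separation, reported as reduction of this enzyme activity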
Description: Inhibition of NEIL1 by quantifying inhibition of NEIL1-mediated cleavage and dissociation of quenched duplex DNA oligonucleotides, measured as fluorescence at 594 nm.

[10] = Compound Concentration 10.0 uM, Hit No
[11] = Compound Concentration 1.0 uM, Hit No
[12] = Compound Concentration 10.0 uM, Hit Yes

Chain of Methyl-CpG-binding domain protein 4 (Homo sapiens) (O95243 whole entry, the tested form may be a part): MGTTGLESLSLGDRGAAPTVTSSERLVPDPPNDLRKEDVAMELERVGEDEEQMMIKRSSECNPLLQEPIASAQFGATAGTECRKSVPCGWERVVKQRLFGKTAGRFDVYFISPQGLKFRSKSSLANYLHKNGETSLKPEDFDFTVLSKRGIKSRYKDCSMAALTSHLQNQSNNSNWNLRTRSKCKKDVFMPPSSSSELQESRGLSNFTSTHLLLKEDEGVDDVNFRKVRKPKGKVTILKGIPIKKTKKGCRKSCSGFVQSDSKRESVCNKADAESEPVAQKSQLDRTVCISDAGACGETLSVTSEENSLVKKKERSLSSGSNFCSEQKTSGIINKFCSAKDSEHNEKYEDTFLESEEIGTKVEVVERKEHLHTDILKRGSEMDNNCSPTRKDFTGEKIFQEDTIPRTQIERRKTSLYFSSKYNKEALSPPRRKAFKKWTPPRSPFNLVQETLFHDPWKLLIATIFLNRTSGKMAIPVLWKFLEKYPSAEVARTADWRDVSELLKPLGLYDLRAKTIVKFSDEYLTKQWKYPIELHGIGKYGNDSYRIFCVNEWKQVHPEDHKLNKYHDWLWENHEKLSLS
Chain of N-glycosylase/DNA lyase (Homo sapiens) (O15527 whole entry): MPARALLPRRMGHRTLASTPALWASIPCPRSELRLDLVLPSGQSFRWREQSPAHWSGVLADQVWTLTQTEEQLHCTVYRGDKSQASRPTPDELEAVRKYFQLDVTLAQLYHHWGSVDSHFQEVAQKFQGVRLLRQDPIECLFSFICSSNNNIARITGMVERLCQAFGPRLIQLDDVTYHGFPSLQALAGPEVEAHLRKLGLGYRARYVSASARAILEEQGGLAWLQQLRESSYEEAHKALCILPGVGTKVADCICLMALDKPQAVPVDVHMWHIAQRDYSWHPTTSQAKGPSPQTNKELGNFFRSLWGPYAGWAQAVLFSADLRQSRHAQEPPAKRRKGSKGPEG
Chain of G/T mismatch-specific thymine DNA glycosylase (Homo sapiens) (Q13569 whole entry): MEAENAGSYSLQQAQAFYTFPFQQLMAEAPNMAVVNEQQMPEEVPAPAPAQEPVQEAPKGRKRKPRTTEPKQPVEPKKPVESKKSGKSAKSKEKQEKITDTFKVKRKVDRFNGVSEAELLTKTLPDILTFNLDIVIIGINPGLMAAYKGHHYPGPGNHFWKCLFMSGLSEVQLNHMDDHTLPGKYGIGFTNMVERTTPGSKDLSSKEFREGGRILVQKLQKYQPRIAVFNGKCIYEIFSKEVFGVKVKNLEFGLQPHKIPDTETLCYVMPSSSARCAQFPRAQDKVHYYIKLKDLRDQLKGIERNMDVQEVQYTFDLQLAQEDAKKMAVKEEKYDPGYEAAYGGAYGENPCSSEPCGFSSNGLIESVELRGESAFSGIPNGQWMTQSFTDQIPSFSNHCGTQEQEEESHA
Chain of Uracil-DNA glycosylase (Homo sapiens) (P13051 whole entry): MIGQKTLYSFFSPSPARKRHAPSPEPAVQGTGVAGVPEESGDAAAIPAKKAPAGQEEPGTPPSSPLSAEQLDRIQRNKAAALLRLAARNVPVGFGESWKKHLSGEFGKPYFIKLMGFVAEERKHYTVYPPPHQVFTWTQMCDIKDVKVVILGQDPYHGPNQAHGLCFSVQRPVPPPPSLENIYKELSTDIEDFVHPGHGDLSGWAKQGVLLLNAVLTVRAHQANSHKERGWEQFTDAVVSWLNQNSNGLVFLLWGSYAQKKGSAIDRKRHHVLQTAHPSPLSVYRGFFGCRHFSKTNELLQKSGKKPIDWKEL
Chain of Endonuclease 8-like 1 (Homo sapiens) (Q96FI4 whole entry): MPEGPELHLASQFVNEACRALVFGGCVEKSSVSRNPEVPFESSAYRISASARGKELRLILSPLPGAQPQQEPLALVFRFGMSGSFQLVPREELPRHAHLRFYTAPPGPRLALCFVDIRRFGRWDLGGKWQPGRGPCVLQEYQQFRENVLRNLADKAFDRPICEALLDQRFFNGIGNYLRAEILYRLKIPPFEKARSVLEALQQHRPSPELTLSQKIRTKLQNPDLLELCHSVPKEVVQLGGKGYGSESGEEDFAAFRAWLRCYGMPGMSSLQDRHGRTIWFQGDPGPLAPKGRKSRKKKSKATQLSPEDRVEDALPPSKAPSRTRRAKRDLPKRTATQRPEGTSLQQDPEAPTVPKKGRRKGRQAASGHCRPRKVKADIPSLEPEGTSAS

Row | SMILES | inhibition [1, 10] | inhibition ([2]; Compound Concentration 10.0 uM) | inhibition ([3]; Compound Concentration 10.0 uM) | inhibition ([4]; Compound Concentration 10.0 uM) | inhibition ([5]; Compound Concentration 10.0 uM) | inhibition ([6]; Compound Concentration 10.0 uM) | inhibition ([7]; Compound Concentration 10.0 uM) | inhibition [8, 10] | inhibition [1, 11] | inhibition ([2]; Compound Concentration 1.0 uM) | inhibition ([3]; Compound Concentration 1.0 uM) | inhibition ([4]; Compound Concentration 1.0 uM) | inhibition ([5]; Compound Concentration 1.0 uM) | inhibition ([6]; Compound Concentration 1.0 uM) | inhibition ([7]; Compound Concentration 1.0 uM) | inhibition [8, 11] | inhibition [9] | inhibition [1, 12] | inhibition [8, 12]
1 | COc1nc2ccc([C@@](O)(c3ccccc3)C3CCN(C(C)=O)CC3)cc2c(Cl)c1Cc1ccc(-n2cccn2)cc1 | 48.5% | -1.29% | 5.36% | 10.5% | 10.2% | 22.3% | -7.63% | 64.6% | – | – | – | – | – | – | – | – | – | – | –
2 | COc1cc(F)ccc1-c1ncnc(Nc2cccc(C[S@](C)(=N)=O)c2)n1 | 49.6% | -0.61% | -2.6% | 9.82% | 2.17% | 21.4% | -10% | -7.86% | – | – | – | – | – | – | – | – | – | – | –
3 | CC(=O)N1CCC(c2ccc(C(=O)NC(=N)N)cc2C(F)(F)F)CC1 | 47.6% | 5.94% | 0.114% | 3.38% | 3.89% | 16.4% | -0.744% | 58.8% | – | – | – | – | – | – | – | – | – | – | –
4 | Cn1cncc1[C@](O)(COc1ccc(C#N)cc1-c1ccc(OC(F)(F)F)cc1)c1ccc(C#N)cc1 | 37.9% | 10.6% | -9.34% | 7.95% | -1.26% | -2.99% | 0.531% | 62% | – | – | – | – | – | – | – | – | – | – | –
5 | COC(=O)c1sccc1S(=O)(=O)Nc1ccc(Nc2ccccc2)cc1OC | 40.6% | -7.86% | -9.5% | 3.38% | 0.459% | 18.2% | 1.55% | 58% | – | – | – | – | – | – | – | – | – | – | –
6 | CC(=O)N1CCC(c2ccc(C(=O)NC3=NCCN3)cc2C(F)(F)F)CC1 | 48.7% | 13.2% | 6.4% | -3.66% | -0.0445% | 11.2% | 6.91% | 57% | – | – | – | – | – | – | – | – | – | – | –
7 | O=C(O)Cc1cc(I)c(Oc2ccc(O)c(I)c2)c(I)c1 | 40.4% | 15.2% | -6.77% | 32.3% | 3.85% | 30.4% | -3.55% | 63.6% | – | – | – | – | – | – | – | – | – | – | –
8 | Cn1cc(C(=O)O)c2ccc(N3CCC(OCc4c(-c5c(Cl)cccc5Cl)noc4C4CC4)CC3)cc21 | 99.9% | 8.57% | 2.96% | 24% | -3.65% | -2.05% | 0.531% | 64.1% | – | – | – | – | – | – | – | – | – | – | –
9 | Cc1cc(OC2CCS(=O)(=O)CC2)cc(C)c1-c1cccc(COc2ccc(CCC(=O)O)c(F)c2)c1 | 45.8% | -0.63% | 3.94% | 48.4% | 3.54% | 12.1% | -9.42% | 58.2% | – | – | – | – | – | – | – | – | – | – | –
10 | O=C(N1CCS(=O)(=O)CC1)N1C[C@H](c2ccc(OC(F)(F)F)cc2)C[C@H](c2nc(C3CC3)no2)C1 | 56.4% | -9.83% | 1.64% | 1.66% | -2.41% | 9.87% | -9.67% | 55.6% | – | – | – | – | – | – | – | – | – | – | –
11 | O=C(Nc1ccc(-n2nc(-c3cccnc3)cc2C(F)(F)F)cn1)c1ccc(-c2ccccc2)c(F)c1 | – | – | – | – | – | – | – | – | 56.1% | 0.685% | -4.64% | 18.5% | 6.15% | 24.9% | 4.61% | 59.3% | – | – | –
12 | CC(C)C(=O)N1CCC(c2cn(C)c3ncc(NC(=O)c4cccc(C#N)c4)c(C(F)(F)F)c23)CC1 | 58.4% | 9.89% | 7.16% | 7.16% | 5.34% | 26.5% | -3.04% | 55.2% | – | – | – | – | – | – | – | – | – | – | –
13 | CCn1c(=O)c(C)cn(Cc2nnc(-c3ccc(F)c(OC)c3F)s2)c1=O | 20.6% | -4.57% | 5.03% | 7.36% | 2.54% | 17.9% | -5.85% | 72.7% | – | – | – | – | – | – | – | – | – | – | –
14 | CC(=O)Nc1c(C(C)=O)c(=O)n(C)c2nc(-c3ccc(Cl)cc3Cl)c(-c3ccc(Cl)cc3)cc12 | 47.2% | -6.55% | 22.8% | 2.2% | 1.63% | 9.09% | 5.63% | 61% | – | – | – | – | – | – | – | – | – | – | –
15 | O=C(O)[C@H]1[C@H](Cn2nnc3ccccc3c2=O)CC[C@@H]1C(=O)c1ccc(OCCC2CCOCC2)cc1 | – | – | – | – | – | – | – | – | 51.4% | 2% | 7.33% | 2.93% | -2.04% | 17% | -9.93% | 58.9% | – | – | –
16 | CCS(=O)(=O)c1cc2cc(C[C@](O)(CC(C)(C)c3ccc(F)cc3C(N)=O)C(F)(F)F)[nH]c2cn1 | 97.5% | 0.685% | -1.09% | -0.262% | -6.06% | 15.9% | -8.14% | 51.2% | – | – | – | – | – | – | – | – | – | – | –
17 | CN(C)C(=O)/C(C#N)=C/c1ccc(-c2nc3cnc4[nH]ccc4c3n2C2CCCCC2)o1 | – | – | – | – | – | – | – | – | 70.6% | -5.49% | -2.18% | 10.1% | 8.33% | 29.1% | -0.572% | 2.33% | – | – | –
18 | CN(C)c1ncnc(-c2ccc3nc(Nc4cc(CN5CCN(C(=O)CC(F)(F)F)CC5)ccn4)[nH]c3c2)c1Cl | 65% | -0.841% | -7.96% | 9.13% | 1.3% | 12.7% | -5.65% | 18% | – | – | – | – | – | – | – | – | – | – | –
19 | O=C1CCc2cc(Nc3cc(OC4CCOCC4)c([N+](=O)[O-])cc3Cl)ccc2N1 | 79.3% | 5.94% | 12.7% | 46.7% | 4.09% | 24.3% | 4.87% | 65.2% | – | – | – | – | – | – | – | – | – | – | –
20 | Cc1c(NC(=O)COc2ccc(Cl)cc2C(=O)c2cc(F)cc(C(F)(F)F)c2)ccc(C(=O)O)c1F | 58.6% | -8.52% | 7.33% | 35.9% | 4.37% | 10.3% | 17.9% | 59.6% | – | – | – | – | – | – | – | – | – | – | –
21 | Cc1nc(-c2ccc(C(F)(F)F)cc2)sc1C(=O)NCc1ccc(OC(C)(C)C(=O)O)cc1 | 53.6% | -7.86% | 6.62% | 20.2% | 5.42% | 17.9% | -7.38% | 62.8% | – | – | – | – | – | – | – | – | – | – | –
22 | CCOCCn1cc(C(=O)Nc2ccc(-n3nc(-c4cccnc4)cc3C(F)(F)F)cn2)ccc1=O | 35.4% | 0.685% | -6.66% | 3.33% | 1.33% | 18.6% | – | 54.1% | – | – | – | – | – | – | – | – | -4.68% | – | –
23 | CN(C)CCN(Cc1ccc(-c2ccc(CNCCc3ccccc3)cc2)cc1)C(=O)CCC1CCCC1 | – | 8% | 93.4% | 3.9% | 1.96% | -6.4% | – | – | – | – | – | – | – | – | – | – | 4.6% | 80.3% | 78.7%
